Assay results as given in patent US7976877B2, “Use of knotwood extracts” (Oy Arbonova Ab, priority 2003, dated 2011).

Assays:
Assay type in all cases: biochemical
[1] = test system: t-butylhydroperoxide (t-BuOOH) induced lipid peroxidation in rat liver microsomes; test: Inhibition of t-BuOOH induced lipid peroxidation in rat liver microsomes in vitro (luminol-enhanced chemiluminescence)
From the text: Estimation of inhibition of lipid peroxidation. The antioxidant properties of the extracts, fractions thereof and the pure compounds were estimated by their potency to inhibit t-butylhydroperoxide (t-BuOOH) induced lipid peroxidation in rat liver microsomes in vitro (17) and by their capacity to trap superoxide (oxygen radical) and peroxyl radicals, estimated by chemiluminescence-based methodology (17). The lipid peroxidation was detected by luminol-enhanced chemiluminescence. Test compounds or extracts were added to incubation mixtures in a small volume (2% of incubation volume), and the lipid peroxidation potency was compared to that of the vehicle (ethanol). Assays for the t-BuOOH-initiated lipid peroxidation was performed as follows. The buffer (50 mM sodium carbonate, pH 10.2, with 0.1 mM EDTA) was pipetted in a volume of 0.8 mL in the luminometer cuvette. 20 μL of diluted rat liver microsomes (final concentration 1.5 μg protein/mL) was added, followed by 6 μL of luminol (0.5 mg/mL) and test chemicals. The reaction was initiated by 0.05 mL of 0.9 mM t-BuOOH at 33° C. The chemiluminescence was measured for 45 min at 1 min cycles. The tests were repeated two to four times on separate days. Variation between assays were <10%.

[2] = Scavenging of superoxide radicals in vitro (xanthine-xanthine oxidase system, lucigenin chemiluminescence)
Description: (§1) Estimation of free radical trapping capacity. The capacity of the extracts, fractions thereof and the pure compounds to trap superoxide (oxygen radical) and peroxyl radicals was estimated by chemiluminescence-based methodology (17). Superoxide anions were produced by xanthine-xanthine oxidase system as follows. 20 μL of xanthine oxidase (420 mU/mL), 0.02 mL of 5 mM lucigenin, 0.02 mL of 200 mM linoleic acid dissolved in 50 mM KOH, 0.78 mL of 50 mM potassium phosphate buffer, pH 10.0, and test samples were pipetted in cuvettes. The reaction was initiated by the automated dispensing of 0.11 mL of 1.45 mM xanthine (final volume 1.0 mL). Chemiluminescence in duplicate samples at 35° C. was measured for 6 min in 1-min cycles. Peroxyl radicals were generated by thermal decomposition of 2,2′-azobis(2-amidinopropane)-hydrochloride as follows. 0.45 mL of 0.1 M sodium phosphate buffer, pH 7.4, containing 0.9% NaCl, 0.02 mL of 120 mM linoleic acid, 0.05 mL of luminol (0.5 mg/mL) and test compounds were mixed in the cuvette. The assay was initiated by 0.05 mL of ABAP (83 mg/mL). Chemiluminescence in triplicate cuvettes at 37° C. was measured until a peak value for each sample was detected. The half-peak time point defined the peroxyl radical trapping capacity.

[3] = Scavenging of peroxyl radicals in vitro (thermal decomposition of ABAP, luminol chemiluminescence); settings: for Stoichiometric factor (peroxyl radicals), range over the two test series: Series 1 and 2 together
Description: as §1

[4] = Series 1, pure compounds, rat liver microsomes
[5] = knotwood extracts, fractions and reference compounds, rat liver microsomes
[6] = knotwood extracts, fractions and reference compounds
[7] = Series 2, pure compounds, different batch of rat liver microsomes

SMILES | IC50 [1, 4] | Inhibition of lipid peroxidation in vitro, IC50 [1, 5] | IC50 ([2]; Series 1, pure compounds) | Scavenging of superoxide radicals in vitro, IC50 [2, 6] | Inhibition of lipid peroxidation in vitro, IC50 [1, 4] | IC50 [1, 7] | Inhibition of lipid peroxidation in vitro, IC50 [1, 7] | Scavenging of superoxide radicals in vitro, IC50 ([2]; Series 1, pure compounds) | Stoichiometric factor (peroxyl radicals scavenged per mole of compound) ([3]; Series 1, pure compounds) | Trapping capacity (peroxyl radicals scavenged per gram) ([3]; Series 1, pure compounds) | Stoichiometric factor (peroxyl radicals scavenged per mole of compound) ([3]; Series 2, pure compounds) | Trapping capacity (peroxyl radicals scavenged per gram) ([3]; Series 2, pure compounds) | Scavenging of superoxide radicals in vitro, IC50 ([2]; Series 1, pure compounds, listed as nortrachelogenin) | Scavenging of superoxide radicals in vitro, IC50 ([2]; Series 1, pure compounds, listed as secoisolariciresinol) | Stoichiometric factor (peroxyl radicals), range over the two test series [3] | Trapping capacity (peroxyl radicals scavenged per gram) ([3]; knotwood extracts, fractions and reference compound)
COc1ccc(O)c(C(C)(C)C)c1 [BHA, butylated hydroxyanisole, reference compound] | 1100 nM | 0.198 µg/mL | 15 nM | 0.0027 µg/mL |  |  |  |  |  |  |  |  |  |  |  | 
COc1cc(C[C@H]2C(=O)OC[C@@H]2[C@H](O)c2ccc(O)c(OC)c2)ccc1O [Hydroxymatairesinol] | 150 nM |  | 217 nM |  | 0.058 µg/mL | 180 nM | 0.067 µg/mL | 0.081 µg/mL | 2.1 mole/mole | 5.6 mmol/g | 2.7 mole/mole | 7.3 mmol/g |  |  |  | 
COc1cc(C[C@H]2CO[C@H](c3ccc(O)c(OC)c3)[C@H]2CO)ccc1O [Lariciresinol] | 350 nM |  | 35 nM |  | 0.126 µg/mL | 170 nM | 0.063 µg/mL | 0.013 µg/mL | 1.0 mole/mole | 2.7 mmol/g | 2.6 mole/mole | 7.3 mmol/g |  |  |  | 
COc1cc(C[C@H]2COC(=O)[C@@H]2Cc2ccc(O)c(OC)c2)ccc1O [Matairesinol] | 280 nM |  | 40 nM |  | 0.099 µg/mL |  |  | 0.014 µg/mL | 1.0 mole/mole | 2.9 mmol/g |  |  |  |  |  | 
COc1cc(CC2COC(=O)C2(O)Cc2ccc(O)c(OC)c2)ccc1O (centres unmarked) [Nortrachelogenin] | 140 nM |  | 1.4 nM |  | 0.053 µg/mL | 190 nM | 0.07 µg/mL | 0.00053 µg/mL | 2.2 mole/mole | 5.9 mmol/g | 2.0 mole/mole | 5.3 mmol/g | more effective scavengers than both BHA and Trolox |  |  | 
COc1cc(C[C@@H](CO)[C@H](CO)Cc2ccc(O)c(OC)c2)ccc1O [Secoisolariciresinol] | 100 nM |  | 4.8 nM |  | 0.037 µg/mL | 150 nM | 0.054 µg/mL | 0.0018 µg/mL | 3.1 mole/mole | 8.5 mmol/g | 4.0 mole/mole | 11 mmol/g |  | more effective scavengers than both BHA and Trolox | 3.1-4.0 mole/mole | 
Cc1c(C)c2c(c(C)c1O)CCC(C)(C(=O)O)O2 (centres unmarked) [Trolox, 6-hydroxy-2,5,7,8-tetramethylchroman-2-carboxylic acid, reference compound] | 20 nM | 0.005 µg/mL | 25 nM | 0.0063 µg/mL |  | 180 nM | 0.046 µg/mL |  | 2.0 mole/mole | 8.0 mmol/g | 1.7 mole/mole | 6.8 mmol/g |  |  | 1.7-2.0 mole/mole | 8.0 mmol/g
